# Data as given in patent US12441704B2, “Compounds active towards nuclear receptors” (NUEVOLUTION A/S, priority 2019, dated 2025).
# Read-outs that look alike come from different tables or passages of the source.
# Key:
# [1] = target: T1, RORγ ligand-binding domain fused to Gal4 (Homo sapiens, UniProt P51449); assay: RORγ Reporter Assay (Gal4); assay type: cell-based
# T1 construct: Gal4 (galactose-responsive transcription factor); expressed in transfected cells; host or cells: HEK293
# T1 sequence (P51449 269-508 limits assumed): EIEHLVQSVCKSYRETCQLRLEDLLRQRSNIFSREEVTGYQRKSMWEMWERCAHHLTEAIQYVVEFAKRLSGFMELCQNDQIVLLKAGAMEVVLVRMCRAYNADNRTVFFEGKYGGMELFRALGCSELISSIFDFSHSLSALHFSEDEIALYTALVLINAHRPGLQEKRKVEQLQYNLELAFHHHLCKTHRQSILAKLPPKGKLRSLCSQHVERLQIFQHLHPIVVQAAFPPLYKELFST
# Outline: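 HEK293 cells transiently co-transfected with the Gal4-fused RORγ LBD and a UAS-luciferase reporter were exposed to compounds for 24 h at 37 °C (0.1% DMSO final). Luminescence was read, and percent reduction of RORγ activity was calculated relative to vehicle-average RLU.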
# [2] = tested on: IL-17A secretion in activated PBMCs; assay: IL-17A secretion in activated PBMCs; assay type: cell-based, human; conditions: for IC50: human PBMCs stimulated with CD3/CD28 Dynabeads for 48 h, absolute IC50; for inhibition at 10 µM: human PBMCs stimulated with CD3/CD28 Dynabeads
# Method: Heparin-treated whole blood from healthy human volunteers was supplied from Hospital de Sant Pau (Barcelona) under the approval of the local ethical review board for human studies (Hospital de Sant Pau, Barcelona, Spain). Human peripheral blood mononuclear cells (PBMCs) were isolated from healthy human volunteers by density gradient centrifugation using the Ficoll-Paque (GE Healthcare). […] Cells were seeded in 384-well plate (DiscoverX), at 40,000 cells per well and cultured 2 h at 37° C. and 5% CO2.
# Dose-response curves with compounds were prepared using a 5-fold serial dilution (10 concentrations) in 100% DMSO and further diluted 100-fold in culture medium. Compound solutions (5 μL) were added to the plate containing cells (final DMSO concentration of 0.1%) and incubated for 30 min. Then, cells were stimulated with CD3/CD28 Dynabeads (ThermoFisher, at a bead-to-cell ratio of 1:1) for 48 h at 37° C. and 5% CO2.
# IL-17A levels in supernatant were determined by immunoassay using hIL17A QBeads (Intellicyt) and by fluorescence analysis in iQue flow cytometer following the manufacturer's instructions. Inhibition of IL-17A secretion was calculated using the following formula: inhibition=100*[1−[(x−mean basal condition)/(mean top condition−mean basal condition)]]. Activated DMSO-treated cells were used as top condition and activated GNE09461 (10 μM)-treated cells as basal condition.
# [3] = HEK293 cells co-transfected with RORγ LBD-Gal4 and luciferase reporter, 24 h incubation, absolute EC50, read-out: EC50
"EC50 [1, 3] [µM]","EC50 ([1]; compounds of the present disclosure, value from Table 2 herein, read-out: Gal4 assay EC50) [µM]",Structure (SMILES),"IC50 ([2]; Homo sapiens, PBMC, 48 h) [µM]",inhibition at 10 µM ([2]; PBMC) [%],IC50 [2] [µM]
0.029,,"NC(=O)CN1CC[C@@H](CNc2ncnc(N(Cc3ccc(C(F)(F)F)cc3)[C@H]3C[C@H](F)C3)c2F)[C@H](O)C1 (racemic) [Example A7-31, rac-2-((3R,4R)-4-(((5-fluoro-6-(((1r,3S)-3-fluorocyclobutyl)(4-(trifluoromethyl)benzyl)amino)pyrimidin-4-yl)amino)methyl)-3-hydroxypiperidin-1-yl)acetamide]",0.18,,
0.034,,"NC(=O)CN1CC[C@@H](CNc2ncnc(N(Cc3ccc(C(F)(F)F)cc3)[C@H]3C[C@@H](F)C3)c2F)[C@H](O)C1 (racemic) [Example A7-32, rac-2-((3R,4R)-4-(((5-fluoro-6-(((1s,3R)-3-fluorocyclobutyl)(4-(trifluoromethyl)benzyl)amino)pyrimidin-4-yl)amino)methyl)-3-hydroxypiperidin-1-yl)acetamide]",0.22,,
0.0055,,"CC(F)(F)c1ccc(CN(c2ncnc(NC[C@@H]3CCN(CC(N)=O)C[C@H]3O)c2F)C2CC2)cc1 (racemic) [Example A7-40, rac-2-((3R,4R)-4-(((6-(cyclopropyl(4-(1,1-difluoroethyl)benzyl)amino)-5-fluoropyrimidin-4-yl)amino)methyl)-3-hydroxypiperidin-1-yl)acetamide]",0.0077,,
0.018,,"NC(=O)CN1CC[C@@H](CNc2ncnc(N(Cc3ccc(OC(F)F)cc3F)C3CC3)c2F)[C@H](O)C1 (racemic) [Example A7-42, rac-2-((3R,4R)-4-(((6-(cyclopropyl(4-(difluoromethoxy)-2-fluorobenzyl)amino)-5-fluoropyrimidin-4-yl)amino)methyl)-3-hydroxypiperidin-1-yl)acetamide]",0.2,,
0.011,,"NC(=O)CN1CC[C@@H](CNc2ncnc(N(Cc3ccc(OC(F)F)cc3)C3CC3)c2F)[C@H](O)C1 (racemic) [Example A7-43, rac-2-((3R,4R)-4-(((6-(cyclopropyl(4-(difluoromethoxy)benzyl)amino)-5-fluoropyrimidin-4-yl)amino)methyl)-3-hydroxypiperidin-1-yl)acetamide]",0.035,,
0.0053,< 0.1,"NC(=O)CN1CC[C@@H](CNc2ncnc(N(Cc3cccc(OC(F)(F)F)c3)C3CC3)c2F)[C@H](O)C1 (racemic) [Example A7-56, rac-2-((3R,4R)-4-(((6-(cyclopropyl(3-(trifluoromethoxy)benzyl)amino)-5-fluoropyrimidin-4-yl)amino)methyl)-3-hydroxypiperidin-1-yl)acetamide]",,66,
0.0018,,"CCN(Cc1ccc(C(F)(F)F)cc1)c1ncnc(NC[C@@H]2CCN(C(C(N)=O)c3ccncc3)C[C@H]2O)c1F (mixture of isomers) [Example A7-62, rac-2-((3R,4R)-4-(((6-(Ethyl(4-(trifluoromethyl)benzyl)amino)-5-fluoropyrimidin-4-yl)amino)methyl)-3-hydroxypiperidin-1-yl)-2-(pyridin-4-yl)acetamide]",0.0072,,
0.0034,,"NC(=O)C(c1ccncc1)N1CC[C@@H](CNc2ncnc(N(Cc3ccc(C(F)(F)F)cc3)C3CC3)c2F)[C@H](O)C1 (mixture of isomers) [Example A7-63, rac-2-((3R,4R)-4-(((6-(cyclopropyl(4-(trifluoromethyl)benzyl)amino)-5-fluoropyrimidin-4-yl)amino)methyl)-3-hydroxypiperidin-1-yl)-2-(pyridin-4-yl)acetamide]",0.0023,,
0.0058,,"NC(=O)C(CO)N1CC[C@@H](CNc2ncnc(N(Cc3ccc(C(F)(F)F)cc3)C3CC3)c2F)[C@H](O)C1 (mixture of isomers) [Example A7-65, rac-2-((3R,4R)-4-(((6-(cyclopropyl(4-(trifluoromethyl)benzyl)amino)-5-fluoropyrimidin-4-yl)amino)methyl)-3-hydroxypiperidin-1-yl)-3-hydroxypropanamide]",0.012,,
0.012,,"Cn1cc(-c2ccc(CN(c3ncnc(NC[C@@H]4CCN(CC(N)=O)C[C@H]4O)c3F)C3CC3)cc2)cn1 (racemic) [Example A7-74, rac-2-((3R,4R)-4-(((6-(cyclopropyl(4-(1-methyl-1H-pyrazol-4-yl)benzyl)amino)-5-fluoropyrimidin-4-yl)amino)methyl)-3-hydroxypiperidin-1-yl)acetamide]",0.023,,
0.013,,"Cn1cc(-c2ccc(CN(c3ncnc(NC[C@@H]4CCN(CC(N)=O)C[C@H]4O)c3F)C3CC3)c(F)c2)cn1 (racemic) [Example A7-75, rac-2-((3R,4R)-4-(((6-(cyclopropyl(2-fluoro-4-(1-methyl-1H-pyrazol-4-yl)benzyl)amino)-5-fluoropyrimidin-4-yl)amino)methyl)-3-hydroxypiperidin-1-yl)acetamide]",0.018,,
0.0066,,"NC(=O)CN1CC[C@@H](CNc2ncnc(N(Cc3ccc(-n4cccn4)cc3F)C3CC3)c2F)[C@H](O)C1 (racemic) [Example A7-76, rac-2-((3R,4R)-4-(((6-(cyclopropyl(2-fluoro-4-(1H-pyrazol-1-yl)benzyl)amino)-5-fluoropyrimidin-4-yl)amino)methyl)-3-hydroxypiperidin-1-yl)acetamide]",0.092,,
0.073,,"CCN(Cc1ccc(-n2cccn2)cc1)c1ncnc(NC[C@@H]2CCN(CC(N)=O)C[C@H]2O)c1F (racemic) [Example A7-77, rac-2-((3R,4R)-4-(((6-((4-(1H-Pyrazol-1-yl)benzyl)(ethyl)amino)-5-fluoropyrimidin-4-yl)amino)methyl)-3-hydroxypiperidin-1-yl)acetamide]",0.44,,
0.065,,"CCN(Cc1ccc(C#N)cc1)c1ncnc(NC[C@@H]2CCN(CC(N)=O)C[C@H]2O)c1F (racemic) [Example A7-78, rac-2-((3R,4R)-4-(((6-((4-cyanobenzyl)(ethyl)amino)-5-fluoropyrimidin-4-yl)amino)methyl)-3-hydroxypiperidin-1-yl)acetamide]",,70,
0.0047,,"CC(C)(C(N)=O)N1CC[C@@H](CNc2ncnc(N(Cc3ccc(C(F)(F)F)cc3)C3CC3)c2F)[C@H](O)C1 (relative stereo) [Example A7-55, rel-2-((3R,4R)-4-(((6-(cyclopropyl(4-(trifluoromethyl)benzyl)amino)-5-fluoropyrimidin-4-yl)amino)methyl)-3-hydroxypiperidin-1-yl)-2-methylpropanamide]",0.0049,,
0.026,,"CCN(Cc1ccc(C(F)(F)F)cc1)c1ncnc(NC[C@@H]2CCN([C@H](CO)C(N)=O)C[C@H]2O)c1F (relative stereo) [Example A7-66-1, rel-(R)-2-((3R,4R)-4-(((6-(ethyl(4-(trifluoromethyl)benzyl)amino)-5-fluoropyrimidin-4-yl)amino)methyl)-3-hydroxypiperidin-1-yl)-3-hydroxypropanamide OR rel-(R)-2-((3S,4S)-4-(((6-(ethyl(4-(trifluoromethyl)benzyl)amino)-5-fluoropyrimidin-4-yl)amino)methyl)-3-hydroxypiperidin-1-yl)-3-hydroxypropanamide]",0.018,,
0.088,,"CCN(Cc1ccc(C(F)(F)F)cc1)c1ncnc(NC[C@H]2CCN(C(CO)C(N)=O)C[C@@H]2O)c1F (relative stereo) [Example A7-66-2, rel-(R)-2-((3R,4R)-4-(((6-(ethyl(4-(trifluoromethyl)benzyl)amino)-5-fluoropyrimidin-4-yl)amino)methyl)-3-hydroxypiperidin-1-yl)-3-hydroxypropanamide OR rel-(R)-2-((3S,4S)-4-(((6-(ethyl(4-(trifluoromethyl)benzyl)amino)-5-fluoropyrimidin-4-yl)amino)methyl)-3-hydroxypiperidin-1-yl)-3-hydroxypropanamide]",,,0.21
0.0027,,"[2H]C([2H])(C(N)=O)N1CC[C@@H](CNc2ncnc(N(Cc3ccc(C(F)(F)F)cc3)C3CC3)c2F)[C@H](O)C1 (relative stereo) [Example A7-69, rel-2-((3R,4R)-4-(((6-(cyclopropyl(4-(trifluoromethyl)benzyl)amino)-5-fluoropyrimidin-4-yl)amino)methyl)-3-hydroxypiperidin-1-yl)acetamide-2,2-d2]",0.0031,,
